Laboratory results as given in PubChem BioAssay AID270 (DTP/NCI, 2004).
“And” between values parts separate entries of the source, which are not always exact repeats. Equal entries are not always repeated. Results filed as inconclusive are left out.

Tested on: BDF1 mice, s.c. Lewis lung carcinoma, T/C %
Assay: NCI In Vivo Anticancer Drug Screen. Data for tumor model Lewis Lung Carcinoma (subcutaneous) in B6D2F1 (BDF1) mice
Protocol: The antitumor activity of compounds was measured in mice bearing transplantable tumors. Survival or tumor size were measured and the results are expressed as the measurement made in the treated group (T) divided by the measurement made in the vehicle treated control group (C). The tumor model used in this assay is Lewis Lung Carcinoma (subcutaneous) in B6D2F1 (BDF1) mice

[1] = endpoint: median survival time, dose: 50.0 mg/kg/injection, schedule: Q01DX009 (ip), vehicle: Klucel (hydroxypropylcellulose) (HPC), higher = longer survival
[2] = endpoint: median survival time, dose: 100.0 mg/kg/injection, schedule: Q01DX009 (ip), vehicle: Klucel (hydroxypropylcellulose) (HPC), higher = longer survival
[3] = endpoint: median survival time, dose: 6.25 mg/kg/injection, schedule: Q01DX009 (ip), vehicle: Klucel (hydroxypropylcellulose) (HPC), higher = longer survival
[4] = endpoint: median survival time, dose: 12.5 mg/kg/injection, schedule: Q01DX009 (ip), vehicle: Klucel (hydroxypropylcellulose) (HPC), higher = longer survival

SMILES: CC1=C2C(=CC(C)(C)[C@@H]2O)C(=O)[C@](C)(O)C12CC2
- T/C (endpoint: mean tumor weight, dose: 0.12 mg/kg/injection, schedule: Q01DX011 (ip), vehicle: saline, higher = larger tumour): 61 % of control
- T/C (endpoint: mean tumor weight, dose: 0.18 mg/kg/injection, schedule: Q01DX011 (ip), vehicle: saline, higher = larger tumour): 92 % of control
- T/C (endpoint: mean tumor weight, dose: 0.26 mg/kg/injection, schedule: Q01DX011 (ip), vehicle: saline, higher = larger tumour): 73 % of control
- T/C (endpoint: mean tumor weight, dose: 0.4 mg/kg/injection, schedule: Q01DX011 (ip), vehicle: saline, higher = larger tumour): 76 % of control
- T/C (endpoint: mean tumor weight, dose: 0.6 mg/kg/injection, schedule: Q01DX011 (ip), vehicle: saline, higher = larger tumour): 19 % of control

SMILES: COC(C(=O)C(O)C(C)O)C1Cc2cc3cc(OC4CC(OC5CC(O)C(O)C(C)O5)C(O)C(C)O4)c(C)c(O)c3c(O)c2C(=O)C1OC1CC(OC2CC(O)C(OC3CC(C)(O)C(O)C(C)O3)C(C)O2)C(O)C(C)O1 (configuration not stated)
- T/C (endpoint: median survival time, dose: 0.06 mg/kg/injection, schedule: Q01DX009 (ip), vehicle: saline, higher = longer survival): 93 % of control
- T/C (endpoint: median survival time, dose: 0.13 mg/kg/injection, schedule: Q01DX009 (ip), vehicle: saline, higher = longer survival): 93 % of control and 123 % of control
- T/C (endpoint: median survival time, dose: 0.25 mg/kg/injection, schedule: Q01DX009 (ip), vehicle: saline, higher = longer survival): 96 % of control
- T/C (endpoint: median survival time, dose: 0.5 mg/kg/injection, schedule: Q01DX009 (ip), vehicle: saline, higher = longer survival): 94 % of control

SMILES: C=C[C@@]1(C)C=C2CC[C@@H]3[C@](C)(CCC[C@@]3(C)C(=O)O)[C@H]2CC1
- T/C (endpoint: mean tumor weight, dose: 25.0 mg/kg/injection, schedule: Q01DX011 (ip), vehicle: saline, higher = larger tumour): 95 % of control
- T/C (endpoint: mean tumor weight, dose: 50.0 mg/kg/injection, schedule: Q01DX011 (ip), vehicle: saline, higher = larger tumour): 88 % of control
- T/C (endpoint: mean tumor weight, dose: 100.0 mg/kg/injection, schedule: Q01DX011 (ip), vehicle: saline, higher = larger tumour): 84 % of control
- T/C (endpoint: mean tumor weight, dose: 200.0 mg/kg/injection, schedule: Q01DX011 (ip), vehicle: saline, higher = larger tumour): 95 % of control

SMILES: O=NN(CCCl)C(=O)Nc1ccc2c3c(cccc13)-c1ccccc1-2
- T/C [1]: 100 % of control
- T/C [2]: 97 % of control
- T/C (endpoint: median survival time, dose: 200.0 mg/kg/injection, schedule: Q01DX009 (ip), vehicle: Klucel (hydroxypropylcellulose) (HPC), higher = longer survival): 88 % of control

SMILES: S=P(NCCNP(=S)(N1CC1)N1CC1)(N1CC1)N1CC1
- T/C [3]: 100 % of control
- T/C [4]: 102 % of control
- T/C (endpoint: median survival time, dose: 25.0 mg/kg/injection, schedule: Q01DX009 (ip), vehicle: Klucel (hydroxypropylcellulose) (HPC), higher = longer survival): 104 % of control

SMILES: O=NN(CCCl)C(=O)NC1CCC(C(=O)O)CC1 (configuration not stated)
- T/C (endpoint: median survival time, dose: 3.0 mg/kg/injection, schedule: Q01DX001 (ip), vehicle: saline with Tween-80, higher = longer survival): 97 % of control and 117 % of control
- T/C (endpoint: median survival time, dose: 5.0 mg/kg/injection, schedule: Q01DX001 (ip), vehicle: saline with Tween-80, higher = longer survival): 116 % of control
- T/C (endpoint: median survival time, dose: 7.0 mg/kg/injection, schedule: Q01DX001 (ip), vehicle: saline with Tween-80, higher = longer survival): 110 % of control
- T/C (endpoint: median survival time, dose: 8.0 mg/kg/injection, schedule: Q01DX001 (ip), vehicle: saline with Tween-80, higher = longer survival): 124 % of control
- T/C (endpoint: median survival time, dose: 11.0 mg/kg/injection, schedule: Q01DX001 (ip), vehicle: saline with Tween-80, higher = longer survival): 113 % of control
- T/C (endpoint: median survival time, dose: 12.0 mg/kg/injection, schedule: Q01DX001 (ip), vehicle: saline with Tween-80, higher = longer survival): 121 % of control
- T/C (endpoint: median survival time, dose: 13.0 mg/kg/injection, schedule: Q01DX001 (ip), vehicle: saline with Tween-80, higher = longer survival): 111 % of control and 288 % of control and 180 % of control
- T/C (endpoint: median survival time, dose: 17.0 mg/kg/injection, schedule: Q01DX001 (ip), vehicle: saline with Tween-80, higher = longer survival): 121 % of control
- T/C (endpoint: median survival time, dose: 20.0 mg/kg/injection, schedule: Q01DX001 (ip), vehicle: saline with Tween-80, higher = longer survival): 206 % of control [middle of 5 runs]
- T/C (endpoint: median survival time, dose: 26.0 mg/kg/injection, schedule: Q01DX001 (ip), vehicle: saline with Tween-80, higher = longer survival): 109 % of control
- T/C (endpoint: median survival time, dose: 27.0 mg/kg/injection, schedule: Q01DX001 (ip), vehicle: saline with Tween-80, higher = longer survival): 196 % of control
- T/C (endpoint: median survival time, dose: 30.0 mg/kg/injection, schedule: Q01DX001 (ip), vehicle: saline with Tween-80, higher = longer survival): 228 % of control and 288 % of control and 219 % of control

SMILES: O=[N+]([O-])c1ccc(Cl)c2c([N+](=O)[O-])cccc12
- T/C [3]: 118 % of control
- T/C [4]: 114 % of control
- T/C [1]: 103 % of control
- T/C [2]: 111 % of control

SMILES: CO[C@H]1C[C@H](O[C@H]2CC[C@]3(C=O)[C@H]4CC[C@]5(C)[C@@H](C6=CC(=O)OC6)CC[C@]5(O)[C@@H]4CC[C@]3(O)C2)O[C@H](C)[C@H]1O
- T/C (endpoint: mean tumor weight, dose: 2.6 mg/kg/injection, schedule: Q01DX011 (sc), vehicle: steriod suspending solution, higher = larger tumour): 59 % of control
- T/C (endpoint: mean tumor weight, dose: 4.0 mg/kg/injection, schedule: Q01DX011 (sc), vehicle: steriod suspending solution, higher = larger tumour): 78 % of control
